In ChEMBL document CHEMBL4376829, “Discovery and biological evaluation of vinylsulfonamide derivatives as highly potent, covalent TEAD autopalmitoylation inhibitors” (Eur J Med Chem, 2019):

Columns and labels:
[1] = biological target: CDK9/cyclin T1 (Homo sapiens) (UniProt O60563+P50750); experiment: Inhibition of recombinant full length human CDK9/cyclinT1 at 10 uM using KTFCGTPEYLAPEVRREPRILSEEEQEMFRDFDYIADWC as substrate measured after 40 mins in presence of [gamma33P]ATP by scintillation counting method relative to control; type: protein-complex assay
[2] = biological target: Serine/threonine-protein kinase NLK (Homo sapiens) (UniProt Q9UBE8); experiment: Inhibition of recombinant human NLK (121 to end residues) at 10 uM using myelin basic protein as substrate measured after 40 mins in presence of [gamma33P]ATP by scintillation counting method relative to control
[3] = biological target: Insulin-like growth factor 1 receptor (Homo sapiens) (UniProt P08069); experiment: Inhibition of recombinant human IGF1R activated (959 to end residues) at 10 uM using KKKSPGEYVNIEF as substrate after 40 mins in presence of [gamma33P]ATP by scintillation counting method relative to control
[4] = biological target: Ribosomal protein S6 kinase alpha-4 (Homo sapiens) (UniProt O75676); experiment: Inhibition of recombinant human MSK2 (2 to end residues) at 10 uM using GRPRTSSFAEGKK as substrate measured after 40 mins in presence of [gamma33P]ATP by scintillation counting method relative to control
[5] = biological target: Histone-arginine methyltransferase CARM1 (Homo sapiens) (UniProt Q86X55); experiment: Inhibition of human PRMT4 at 10 uM relative to control
Sequence of Histone-arginine methyltransferase CARM1 (Homo sapiens) (Q86X55 whole entry): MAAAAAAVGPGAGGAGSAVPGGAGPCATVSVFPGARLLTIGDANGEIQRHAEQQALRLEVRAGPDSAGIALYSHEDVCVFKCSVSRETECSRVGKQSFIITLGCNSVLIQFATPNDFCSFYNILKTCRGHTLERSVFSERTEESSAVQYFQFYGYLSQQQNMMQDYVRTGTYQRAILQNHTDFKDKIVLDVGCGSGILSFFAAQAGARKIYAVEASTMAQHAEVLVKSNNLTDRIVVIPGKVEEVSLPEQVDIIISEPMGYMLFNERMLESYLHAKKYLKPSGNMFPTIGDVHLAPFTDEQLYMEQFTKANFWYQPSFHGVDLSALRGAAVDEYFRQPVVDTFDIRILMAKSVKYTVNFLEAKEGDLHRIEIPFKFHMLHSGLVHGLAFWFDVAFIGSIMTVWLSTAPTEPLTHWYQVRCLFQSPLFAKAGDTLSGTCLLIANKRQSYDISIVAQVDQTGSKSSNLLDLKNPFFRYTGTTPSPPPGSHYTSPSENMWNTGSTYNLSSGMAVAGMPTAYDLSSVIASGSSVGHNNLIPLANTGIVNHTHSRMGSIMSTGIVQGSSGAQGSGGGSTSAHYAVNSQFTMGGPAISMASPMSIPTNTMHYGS

Sequence of Ribosomal protein S6 kinase alpha-4 (Homo sapiens) (O75676 whole entry, looked up): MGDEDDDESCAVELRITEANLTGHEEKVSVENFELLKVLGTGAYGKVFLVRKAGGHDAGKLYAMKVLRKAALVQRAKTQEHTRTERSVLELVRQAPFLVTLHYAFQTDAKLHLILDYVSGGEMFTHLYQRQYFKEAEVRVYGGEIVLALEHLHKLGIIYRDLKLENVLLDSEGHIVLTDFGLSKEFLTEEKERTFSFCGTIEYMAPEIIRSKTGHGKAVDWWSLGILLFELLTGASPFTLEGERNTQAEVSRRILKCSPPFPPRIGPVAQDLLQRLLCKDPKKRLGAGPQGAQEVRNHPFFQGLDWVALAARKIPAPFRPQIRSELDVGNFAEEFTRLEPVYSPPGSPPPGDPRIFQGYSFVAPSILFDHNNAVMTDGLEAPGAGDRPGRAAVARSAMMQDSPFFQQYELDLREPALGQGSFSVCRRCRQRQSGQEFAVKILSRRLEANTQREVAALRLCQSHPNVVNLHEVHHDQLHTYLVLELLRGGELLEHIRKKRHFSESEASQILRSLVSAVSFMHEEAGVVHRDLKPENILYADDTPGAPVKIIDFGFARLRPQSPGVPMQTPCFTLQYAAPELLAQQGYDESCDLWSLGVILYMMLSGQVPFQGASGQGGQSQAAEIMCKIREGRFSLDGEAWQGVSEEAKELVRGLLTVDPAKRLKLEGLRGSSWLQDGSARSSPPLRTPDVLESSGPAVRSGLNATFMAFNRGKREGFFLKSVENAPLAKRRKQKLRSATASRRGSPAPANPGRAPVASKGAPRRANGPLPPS
Sequence of Insulin-like growth factor 1 receptor (Homo sapiens) (P08069 31-736 limits assumed): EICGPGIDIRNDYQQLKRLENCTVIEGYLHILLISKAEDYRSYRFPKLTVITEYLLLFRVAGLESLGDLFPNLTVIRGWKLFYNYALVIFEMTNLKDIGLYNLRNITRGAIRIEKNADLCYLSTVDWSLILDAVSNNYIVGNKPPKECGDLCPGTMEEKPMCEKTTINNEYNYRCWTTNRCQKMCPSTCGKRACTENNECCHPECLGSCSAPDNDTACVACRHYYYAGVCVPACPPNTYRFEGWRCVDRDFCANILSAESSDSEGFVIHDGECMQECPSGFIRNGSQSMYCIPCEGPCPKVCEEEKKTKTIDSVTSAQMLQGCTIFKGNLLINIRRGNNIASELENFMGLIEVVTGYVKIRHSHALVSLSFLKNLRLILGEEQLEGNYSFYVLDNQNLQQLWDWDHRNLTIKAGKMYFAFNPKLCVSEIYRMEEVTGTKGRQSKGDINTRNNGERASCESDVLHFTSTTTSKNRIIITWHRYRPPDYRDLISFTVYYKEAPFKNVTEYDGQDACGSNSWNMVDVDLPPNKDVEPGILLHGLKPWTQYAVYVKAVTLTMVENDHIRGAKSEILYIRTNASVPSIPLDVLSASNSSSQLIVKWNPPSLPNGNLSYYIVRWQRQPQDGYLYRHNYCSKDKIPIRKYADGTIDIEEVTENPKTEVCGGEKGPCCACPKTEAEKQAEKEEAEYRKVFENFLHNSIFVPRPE
Sequence of Insulin-like growth factor 1 receptor (Homo sapiens) (P08069 741-1367 limits assumed): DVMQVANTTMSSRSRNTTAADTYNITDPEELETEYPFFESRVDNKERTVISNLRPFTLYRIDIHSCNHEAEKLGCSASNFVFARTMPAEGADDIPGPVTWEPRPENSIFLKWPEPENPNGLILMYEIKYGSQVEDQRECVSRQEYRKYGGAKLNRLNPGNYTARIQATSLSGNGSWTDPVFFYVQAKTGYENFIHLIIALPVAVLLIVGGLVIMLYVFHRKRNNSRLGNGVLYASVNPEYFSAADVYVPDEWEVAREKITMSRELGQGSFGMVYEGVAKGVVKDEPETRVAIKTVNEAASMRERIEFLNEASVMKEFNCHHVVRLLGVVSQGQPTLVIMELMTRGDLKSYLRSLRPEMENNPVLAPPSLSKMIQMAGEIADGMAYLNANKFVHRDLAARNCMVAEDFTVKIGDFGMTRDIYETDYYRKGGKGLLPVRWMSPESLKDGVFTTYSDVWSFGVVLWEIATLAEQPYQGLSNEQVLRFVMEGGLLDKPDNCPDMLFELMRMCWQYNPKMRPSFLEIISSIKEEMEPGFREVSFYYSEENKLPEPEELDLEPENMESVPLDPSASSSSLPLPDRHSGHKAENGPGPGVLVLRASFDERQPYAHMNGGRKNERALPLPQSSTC
Sequence of Serine/threonine-protein kinase NLK (Homo sapiens) (Q9UBE8 whole entry): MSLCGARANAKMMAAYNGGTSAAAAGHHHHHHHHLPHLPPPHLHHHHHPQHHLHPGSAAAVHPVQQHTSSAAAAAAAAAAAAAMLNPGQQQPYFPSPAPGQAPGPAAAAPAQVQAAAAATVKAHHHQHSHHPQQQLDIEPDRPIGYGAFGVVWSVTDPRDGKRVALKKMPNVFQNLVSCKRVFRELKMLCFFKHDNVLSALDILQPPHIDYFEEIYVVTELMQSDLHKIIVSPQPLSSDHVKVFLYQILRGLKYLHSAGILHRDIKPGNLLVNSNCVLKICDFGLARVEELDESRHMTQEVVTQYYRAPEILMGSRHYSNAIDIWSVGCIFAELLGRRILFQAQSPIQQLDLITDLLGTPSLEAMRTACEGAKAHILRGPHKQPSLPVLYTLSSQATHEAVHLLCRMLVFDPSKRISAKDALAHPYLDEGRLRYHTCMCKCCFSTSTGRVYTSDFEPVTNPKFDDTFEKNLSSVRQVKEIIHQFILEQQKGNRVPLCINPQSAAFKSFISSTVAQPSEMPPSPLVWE

Molecule C=CS(=O)(=O)Nc1ccc(Cc2ccc3ccccc3c2)cc1 has an inhibition [1] of 3%, an inhibition [2] of 2% and an inhibition [3] of 16%. It also gave an inhibition [4] of 12% and an inhibition [5] of 5%.
